Experimental data: the NIST ThermoML archive (doi:10.1016/j.fluid.2014.10.002)
Where “and” joins values, the source holds several entries; their conditions need not be identical. Equal entries are not always repeated.

Settings: Liquid, Vibrating wire viscometry

CCCCC(CC)COC(=O)c1ccc(C(=O)OCC(CC)CCCC)c(C(=O)OCC(CC)CCCC)c1 (stereo unspecified) [tris(2-ethylhexyl) trimellitate]
Settings | viscosity
343.14 K, 49870 kPa | 53.82 mPa·s and 53.79 mPa·s
343.14 K, 50340 kPa | 53.74 mPa·s
343.14 K, 50350 kPa | 53.88 mPa·s
343.14 K, 50360 kPa | 53.81 mPa·s and 53.95 mPa·s and 53.91 mPa·s
343.14 K, 65050 kPa | 68.46 mPa·s
343.14 K, 65060 kPa | 68.25 mPa·s
343.14 K, 65070 kPa | 68.22 mPa·s
343.14 K, 65080 kPa | 68.37 mPa·s
343.14 K, 65100 kPa | 68.38 mPa·s
343.15 K, 1040 kPa | 22.81 mPa·s
343.15 K, 1050 kPa | 22.74 mPa·s
343.15 K, 1060 kPa | 22.78 mPa·s
343.15 K, 1070 kPa | 22.74 mPa·s
343.15 K, 1090 kPa | 22.81 mPa·s
343.15 K, 2540 kPa | 23.48 mPa·s and 23.4 mPa·s
343.15 K, 2580 kPa | 23.42 mPa·s
343.15 K, 4800 kPa | 24.49 mPa·s
343.15 K, 4820 kPa | 24.51 mPa·s
343.15 K, 4880 kPa | 24.44 mPa·s
343.15 K, 4900 kPa | 24.44 mPa·s and 24.52 mPa·s and 24.43 mPa·s
343.15 K, 7530 kPa | 25.82 mPa·s
343.15 K, 7590 kPa | 25.76 mPa·s
343.15 K, 7630 kPa | 25.78 mPa·s
343.15 K, 7650 kPa | 25.77 mPa·s
343.15 K, 10140 kPa | 27.08 mPa·s
343.15 K, 15040 kPa | 29.65 mPa·s and 29.63 mPa·s
343.15 K, 15050 kPa | 29.64 mPa·s
343.15 K, 15060 kPa | 29.74 mPa·s
343.15 K, 15070 kPa | 29.73 mPa·s
343.15 K, 15090 kPa | 29.74 mPa·s
358.18 K, 2460 kPa | 14.15 mPa·s
358.18 K, 2470 kPa | 14.13 mPa·s
358.18 K, 2480 kPa | 14.11 mPa·s
358.18 K, 2490 kPa | 14.11 mPa·s
358.18 K, 2500 kPa | 14.16 mPa·s
358.18 K, 2530 kPa | 14.14 mPa·s
358.18 K, 4840 kPa | 14.65 mPa·s
358.18 K, 4860 kPa | 14.68 mPa·s
358.18 K, 4920 kPa | 14.69 mPa·s
358.18 K, 4960 kPa | 14.64 mPa·s
358.18 K, 4990 kPa | 14.64 mPa·s
358.18 K, 7360 kPa | 15.35 mPa·s
358.18 K, 7370 kPa | 15.37 mPa·s
358.18 K, 7390 kPa | 15.35 mPa·s
358.18 K, 7410 kPa | 15.34 mPa·s
358.18 K, 7420 kPa | 15.37 mPa·s and 15.38 mPa·s
358.18 K, 10350 kPa | 16.11 mPa·s
358.18 K, 10380 kPa | 16.12 mPa·s
358.18 K, 10410 kPa | 16.11 mPa·s
358.18 K, 15320 kPa | 17.52 mPa·s
358.18 K, 20050 kPa | 18.99 mPa·s
358.18 K, 20070 kPa | 19.03 mPa·s and 18.97 mPa·s
358.18 K, 20090 kPa | 18.99 mPa·s
358.18 K, 20120 kPa | 18.99 mPa·s
358.18 K, 20130 kPa | 19.05 mPa·s
358.18 K, 40240 kPa | 26.25 mPa·s
358.18 K, 40250 kPa | 26.27 mPa·s
358.18 K, 40260 kPa | 26.24 mPa·s
358.18 K, 40280 kPa | 26.21 mPa·s
358.18 K, 40290 kPa | 26.24 mPa·s
358.19 K, 1290 kPa | 13.79 mPa·s
358.19 K, 1330 kPa | 13.79 mPa·s
358.19 K, 1380 kPa | 13.85 mPa·s
358.19 K, 10470 kPa | 16.13 mPa·s
358.19 K, 15340 kPa | 17.51 mPa·s
358.19 K, 15360 kPa | 17.51 mPa·s
358.19 K, 15370 kPa | 17.52 mPa·s
358.19 K, 15390 kPa | 17.53 mPa·s
358.19 K, 15410 kPa | 17.54 mPa·s
358.19 K, 30310 kPa | 22.42 mPa·s
358.19 K, 30360 kPa | 22.4 mPa·s
358.19 K, 30380 kPa | 22.43 mPa·s and 22.47 mPa·s and 22.46 mPa·s
358.19 K, 50360 kPa | 30.62 mPa·s
358.19 K, 50380 kPa | 30.63 mPa·s
358.19 K, 50390 kPa | 30.61 mPa·s
358.19 K, 50400 kPa | 30.65 mPa·s
358.19 K, 50420 kPa | 30.65 mPa·s
358.19 K, 65540 kPa | 38.26 mPa·s
358.19 K, 65550 kPa | 38.23 mPa·s
358.19 K, 65570 kPa | 38.28 mPa·s
358.19 K, 65600 kPa | 38.23 mPa·s
358.19 K, 65610 kPa | 38.23 mPa·s
373.17 K, 1070 kPa | 8.988 mPa·s and 8.981 mPa·s and 8.984 mPa·s
373.17 K, 1080 kPa | 8.99 mPa·s
373.17 K, 2690 kPa | 9.227 mPa·s
373.17 K, 2720 kPa | 9.242 mPa·s
373.17 K, 2730 kPa | 9.241 mPa·s
373.17 K, 5100 kPa | 9.651 mPa·s
373.17 K, 5110 kPa | 9.649 mPa·s and 9.654 mPa·s
373.17 K, 5120 kPa | 9.651 mPa·s
373.17 K, 5130 kPa | 9.669 mPa·s
373.17 K, 5140 kPa | 9.653 mPa·s
373.17 K, 7440 kPa | 10.06 mPa·s
373.17 K, 7470 kPa | 10.05 mPa·s
373.17 K, 7480 kPa | 10.03 mPa·s
373.17 K, 7500 kPa | 10.03 mPa·s
373.17 K, 10430 kPa | 10.53 mPa·s
373.17 K, 10450 kPa | 10.57 mPa·s
373.17 K, 15160 kPa | 11.29 mPa·s
373.17 K, 15180 kPa | 11.28 mPa·s
373.17 K, 15210 kPa | 11.32 mPa·s and 11.33 mPa·s and 11.27 mPa·s
373.17 K, 65290 kPa | 23.71 mPa·s
373.18 K, 2460 kPa | 9.209 mPa·s and 9.224 mPa·s and 9.213 mPa·s
373.18 K, 2470 kPa | 9.234 mPa·s
373.18 K, 2500 kPa | 9.245 mPa·s
373.18 K, 2710 kPa | 9.252 mPa·s
373.18 K, 10440 kPa | 10.57 mPa·s
373.18 K, 10450 kPa | 10.52 mPa·s
373.18 K, 10460 kPa | 10.56 mPa·s
373.18 K, 20250 kPa | 12.27 mPa·s and 12.26 mPa·s
373.18 K, 20260 kPa | 12.27 mPa·s
373.18 K, 20270 kPa | 12.29 mPa·s
373.18 K, 20290 kPa | 12.3 mPa·s
373.18 K, 20320 kPa | 12.28 mPa·s
373.18 K, 29980 kPa | 14.31 mPa·s
373.18 K, 29990 kPa | 14.32 mPa·s
373.18 K, 30000 kPa | 14.27 mPa·s
373.18 K, 30010 kPa | 14.3 mPa·s
373.18 K, 30030 kPa | 14.28 mPa·s
373.18 K, 40130 kPa | 16.58 mPa·s
373.18 K, 40140 kPa | 16.57 mPa·s
373.18 K, 40150 kPa | 16.63 mPa·s
373.18 K, 40170 kPa | 16.61 mPa·s
373.18 K, 40190 kPa | 16.64 mPa·s
373.18 K, 50280 kPa | 19.18 mPa·s
373.18 K, 50290 kPa | 19.21 mPa·s and 19.23 mPa·s
373.18 K, 50310 kPa | 19.17 mPa·s
373.18 K, 50320 kPa | 19.23 mPa·s
373.18 K, 65330 kPa | 23.7 mPa·s
373.18 K, 65350 kPa | 23.72 mPa·s
373.18 K, 65370 kPa | 23.68 mPa·s
